Two substances from paper PMC3886529, “Structural Features of the Peptide Homologous to 6-25 Fragment of Influenza A PB1 Protein” (International Journal of Peptides, 2013) can be followed below.

Ends that are not written are not given here.

The target of data set [1] is T1, PB1 (6-25) (Influenza A virus, UniProt O89749). As to the kind of experiment: biochemical. It is filed as binding.
Data set [2] has as its target T1, PB1 (6-25). In kind it is physicochemical.
The format of data set [3] is physicochemical. The conditions noted are these: diluted to 0.2 mM, negative staining (phosphotungstic acid, pH 7.4), 80 kV.
Data set [4] concerns the target T1, PB1 (6-25). It is filed as binding.
Data set [5] addresses T1, PB1 (6-25). In kind it is physicochemical. The source holds these as a separate data set.
In data set [6] the target is T1, PB1 (6-25). In kind it is physicochemical. The conditions noted are these: pH 7.4.
Data set [7] is described as follows: Circular dichroism, secondary structure of PB1 (6-25) in solution. It is filed as physicochemical. The conditions noted are these: CD 194–320 nm, 1 mg/mL solution. The method, then:
Circular dichroism (194–320 nm) was measured on PB1 (6-25) 1 mg/mL solution. Spectra were analyzed with CDNN software.
In general terms: CD spectra are sensitive to the conformation of chiral molecules.

In the case of TLLFLKVP-OH [PB1 (6-13), TLLFLKVP], in data set [1], the Kd (commonly the constant that tells how readily two partners part at equilibrium) lay in the range of 200 to 1000 µM. Moreover, the “reversibility of insoluble aggregates” value in data set [2] is recorded as “could not reverse into soluble forms after dilution or heating”. For the same substance, in data set [3], the “formation of structured aggregates, single peptide alone” value is on record as “not in the samples containing either one of the peptides”. For the same substance, in data set [4], the “effect on antiparallel beta-sheets of PB1 (6-25)” value is listed as “contributed to increase antiparallel beta-sheets”. Also, the diameter of aggregates in data set [5] was 500–1000 nm. Further, in data set [6], the “characteristic linear size of structured aggregates” value is recorded as “about 500 nm”.
For “TLLFLKVPAQNAISTTFPYT [PB1 (6-25), peptide comprised of amino acid residues 6-25 of influenza virus PB1]”, the “formation of structured aggregates, single peptide alone” value in data set [3] is “not in the samples containing either one of the peptides”. In data set [7] (CDNN software), the alpha-helix content turned out to be 8%, the antiparallel beta-sheet content was determined as 30%, the beta-turns content worked out at 25% and the “random coil structure content” value came to 37%. Besides, in data set [7] (compared with the molecular dynamics model), the “secondary structure in solution” value was “structure similar to the described model of beta-hairpin”.
